Assay results: PMC7822874, “Chemoprotective antimalarials identified through quantitative high-throughput screening of Plasmodium blood and liver stage parasites” (Scientific Reports, 2021)
Read-outs that look alike come from different tables or passages of the source.

Experiments:
[1] = tested on: Plasmodium falciparum Dd2 asexual blood stage parasites; assay: microbe, parasite or virus in culture; parameters: species or system Plasmodium falciparum Dd2 in human erythrocytes; single determination (one 11-point concentration-response curve); details: Plasmodium falciparum, DD2, Erythrocyte, 72 h
in vitro = details: human
[2] = HepG2-A16-CD81EGFP cells, uninfected

Row | SMILES | AC50 ([1]; read-out: AC50) | viability at 48 h, 1 µM (in vitro; [2]) | viability at 48 h, 3 µM (in vitro; [2]) | also measured
1 | O=C1C=C(O)C=CC1=CNNc1ccnc2cc(Cl)ccc12 [MLS000759655-01] | 0.596 µM | 101% |  | viability at 48 h (in vitro; [2]): 101%
2 | COc1ccc(C(CCN2CCCCC2)c2c(O)cc(OC)cc2OC)cc1 (centres unmarked) [MLS000879486-01] | 1.33 µM | 90% | 85% | 
3 | Clc1ccc2c(NCc3ccccn3)ccnc2c1 [MLS001178012-01] | 2.11 µM |  |  | viability at 66 h (in vitro; [2]): 107%
4 | O=S(=O)(c1ccccc1)c1nnn2c1nc(NC1CCN(Cc3ccccc3)CC1)c1cc(Cl)ccc12 [MLS000925207-01] | 2.99 µM |  |  | viability at 66 h (in vitro; [2]): 101%
5 | CCC(C)c1ccc(O)c(NC(=O)c2cncc(Br)c2)c1 (centres unmarked) [MLS000062368-01] | 2.99 µM | 113% | 103% | 
6 | CCC1(OC(=O)CN)C(=O)OCc2c1cc1n(c2=O)Cc2cc3ccccc3nc2-1 (centres unmarked) [MLS000766263-01] |  |  |  | AC50 [1]: 6.68 µM; viability (in vitro): 24.7%
7 | CCOC(=O)c1cnc2cc(OCC(C)C)c(OCC(C)C)cc2c1O [NCGC00167562-01] | 0.944 µM | 83% | 82% | 
8 | Cc1cc(C)cc(N(CC(=O)NCc2ccc3c(c2)OCO3)C(=O)CCC(=O)Nc2ccccn2)c1 [MLS000032464-01] | 4.22 µM |  |  | viability at 66 h (in vitro; [2]): 96.4%
9 | CN(C)c1cc[n+](CC(=O)c2cccs2)cc1 [MLS001207444-01] | 6.68 µM |  |  | viability at 66 h (in vitro; [2]): 101%
10 | COc1ccc([S+](=O)([O-])Nc2ccc(C)n(CC(=O)Nc3ccccc3)c2=O)cc1 [NCGC00430934-01] | 2.66 µM |  |  | viability at 66 h (in vitro; [2]): 103%
11 | Clc1ccc(-c2nnc(N3CCCC3)nn2)cc1 [MLS000038815-01] | 0.531 µM |  |  | viability at 66 h (in vitro; [2]): 102%
12 | CCn1c2c(c(=N)c3ccccc31)CCC2 [MLS001047391-01] | 6.68 µM |  |  | viability at 66 h (in vitro; [2]): 97.3%
13 | CCOC(=O)c1cnc2ccc(OC)cc2c1Nc1ccc(N2CCN(C)CC2)cc1 [MLS001164177-01] | 1.68 µM | 98% | 94% | 
14 | COc1cc(O)c(C(CCN2CCCC(C)C2)c2cc(OC)c(OC)c(OC)c2)c(OC)c1 (centres unmarked) [MLS000879467-01] | 1.88 µM | 90% | 88% | 
15 | Cc1cccc(NC2=C(NC(=O)c3ccccc3)C(=O)c3ccccc3C2=O)c1 [MLS000392330-01] | 0.944 µM | 98% | 95% | 
16 | Cc1nccn1CC(O)Cn1c2ccccc2c2ccccc21 (centres unmarked) [MLS000527796-01] | 8.41 µM | 103% |  | viability at 48 h (in vitro; [2]): 103%
17 | COc1ccc(N2/C(=C/C(C)=O)NC(=O)c3c(C)cc(C)nc32)cc1 [MLS000088720-01] | 3.35 µM |  |  | viability at 66 h (in vitro; [2]): 103%
18 | CCN(CC)CCC(c1ccc2c(c1)OCO2)c1c(O)cc(OC)cc1OC (centres unmarked) [MLS000879498-01] | 4.22 µM |  |  | viability at 66 h (in vitro; [2]): 103%
19 | O=C(NCCCNc1ccnc2cc(Cl)ccc12)c1ccccc1F [MLS001215856-01] | 0.841 µM | 85% | 88% | 

Row | SMILES | AC50 ([1]; read-out: AC50) | viability at 48 h, 1 µM (in vitro; [2]) | viability at 48 h, 3 µM (in vitro; [2]) | also measured
20 | Cc1cc(C(C)c2ccccc2)c(O)c(CN2CCOCC2)c1C (centres unmarked) [MLS000064176-01] | 2.99 µM | 108% |  | viability at 48 h (in vitro; [2]): 108%
21 | CCN1CCN(Cc2ccc(NC(=O)c3cc(NC(=O)C(=O)c4c[nH]c5ccccc45)cc(OC)c3)cc2C(F)(F)F)CC1 [MLS003105970-01] | 0.668 µM |  |  | viability at 66 h (in vitro; [2]): 105%
22 | Cc1onc(-c2ccc(Cl)cc2)c1-c1ccnn1S(=O)(=O)c1ccc(Cl)cc1 [MLS001111121-01] | 1.88 µM |  |  | viability at 66 h (in vitro; [2]): 100%
23 | CCC(O)(CC)C(=O)NN(C(=O)Nc1csc2c1CCCC2)c1ccccc1 [MLS000554206-01] | 2.99 µM | 98% | 95% | 
24 | COc1ccc2ccc(O)c(CN3CC=C(c4ccccc4)CC3)c2c1 [MLS000760157-01] | 8.41 µM |  |  | viability at 48 h, 1 µM (in vitro): 107%; viability at 48 h, 3 µM (in vitro): 101%
25 | CCCc1nnc(NC(=O)c2cn(CC)c3cc(N4CCN(C)CC4)c(F)cc3c2=O)s1 [MLS001049245-01] | 8.41 µM |  |  | viability at 66 h (in vitro; [2]): 105%
26 | COc1cc2c3nnc(-c4ccc(F)cc4)c-3cn(Cc3ccccc3F)c2cc1OC [MLS000419426-01] | 3.76 µM | 113% | 100% | 
27 | CCOC(=O)c1cn(CC)c2cc(N3CCSCC3)c(F)cc2c1=O [MLS000038775-01] | 1.68 µM | 89% | 85% | 
28 | CCc1nc(Nc2ccc3nccnc3c2)c2oc3ccccc3c2n1 [MLS000041713-01] | 2.37 µM | 104% | 95% | 
29 | OC(CNC1CCCCCC1)COc1cccc2ccccc12 (centres unmarked) [MLS001174634-01] | 1.88 µM | 103% | 98% | 
30 | O=S(=O)(c1ccc2ccccc2c1)N1CCN(/C(S)=N/c2ccccc2F)CC1 [MLS000760214-01] | 4.22 µM | 103% | 102% | 
31 | O=S(=O)(c1ccc(Cl)cc1)N1CCN(/C(S)=N/c2ccccc2F)CC1 [MLS001002653-01] | 2.37 µM | 97% | 94% | 
32 | COc1ccc(-c2csc3ncnc(Cl)c23)cc1 [MLS000765103-01] | 4.22 µM | 86% | 86% | 
33 | CCN(CC)C1=NC(=[N+](CC)CC)c2ccccc21.[O-][Cl+3]([O-])([O-])O [MLS000565348-01] | 5.31 µM |  |  | viability (in vitro): 81.5%
34 | CCOC(=O)c1nc2cc3n(c(CC(C)C)c-2c1C)CC(C)=C3C [MLS000594428-01] | 7.5 µM | 108% |  | viability at 48 h (in vitro; [2]): 108%
35 | CCN(CC)CCCC(C)Nc1cc(C=Cc2ccccc2Cl)nc2cc(Cl)ccc12 (centres unmarked) [NCGC00160524-01] | 0.841 µM | 103% | 99% | 
36 | CCOC(=O)c1c(-c2ccccc2)oc2ccc(O)c(CN3CCCC3)c12 [MLS000530619-01] | 0.596 µM | 98.8% |  | viability at 48 h (in vitro; [2]): 98.8%
37 | OC(CN1CCN(c2ccccn2)CC1)Cn1c2ccc(Cl)cc2c2cc(Cl)ccc21 (centres unmarked) [MLS000529159-01] | 2.99 µM |  |  | viability at 66 h (in vitro; [2]): 102%
38 | COc1ccc(NC(C)C(=O)Nc2cc(C(F)(F)F)ccc2N2CCOCC2)c(OC)c1 (centres unmarked) [MLS000334848-01] | 0.841 µM | 100% | 91% | 

Row | SMILES | AC50 ([1]; read-out: AC50) | viability at 48 h, 1 µM (in vitro; [2]) | viability at 48 h, 3 µM (in vitro; [2]) | also measured
39 | CN(CCNC(=O)c1cc2c(-c3ccccc3F)nn(C)c2s1)C1CCCCC1 [MLS001199243-01] | 5.96 µM | 84% | 84% | 
40 | O=C(O)c1ccc(N/N=C/c2cn(-c3ccccc3)nc2-c2cccs2)cc1 [MLS000759699-01] | 2.66 µM | 112% | 103% | 
41 | COC(=O)[C@H]1[C@H]2C[C@@H]3c4[nH]c5cc(OC)ccc5c4CCN3C[C@H]2C[C@@H](OC(=O)/C=C/c2cc(OC)c(OC)c(OC)c2)[C@@H]1OC [MLS002153878-01] | 5.31 µM |  |  | viability at 48 h (in vitro): 106%; viability at 48 h, 1 µM (in vitro): 106%
42 | CCCc1cc(=O)oc2c(C)c(O)c(CN3CCCCC3)cc12 [MLS000081526-01] | 3.35 µM |  |  | viability at 66 h (in vitro; [2]): 104%
43 | CCN(CC)CCC(c1ccc(OC)cc1)c1c(O)cc(OC)cc1OC (centres unmarked) [MLS000879488-01] | 6.68 µM |  |  | viability at 66 h (in vitro; [2]): 99.6%
44 | Cc1ccc(S(=O)(=O)c2nnn3c2nc(N2CCN(c4ccccn4)CC2)c2ccccc23)cc1 [MLS001124278-01] | 7.5 µM | 98.6% |  | viability at 48 h (in vitro; [2]): 98.6%
45 | O=C1C(c2ccccc2)=[N+](O)c2ccccc21 [MLS001241052-01] | 1.88 µM |  |  | viability at 66 h (in vitro; [2]): 97.9%
46 | N#Cc1nc(Nc2cc(F)cc(F)c2)c2ncn(CC(F)F)c2n1 [MLS002471784-01] | 4.73 µM | 97% | 87% | 
47 | Oc1c2c(nc3ccc(Br)cc13)CCCC2 [MLS000074180-01] | 6.68 µM | 100% | 98% | 
48 | CCOc1ccccc1C1c2[nH]c3ccccc3c2C[C@H]2C(=O)N(C3CCN(Cc4ccccc4)CC3)CC(=O)N12 (some centres unmarked) [MLS001215140-01] | 2.37 µM | 106% | 101% | 
49 | CCCc1cc(=O)oc2cc(C)cc(OCC(=O)NC3CC3)c12 [MLS001159103-01] | 4.73 µM | 121% | 104% | 
50 | COC(=O)[C@]1(C)CCC[C@@]2(C)C3CC[C@@]4(C)C[C@]3(CCC21)CC(=O)N4Cc1ccc(OC)cc1 (some centres unmarked) [MLS002207414-01] | 3.76 µM |  |  | viability at 66 h (in vitro; [2]): 96.7%
51 | Cc1cc(O)c(CN2CC=C(c3ccccc3)CC2)cc1C(C)C [MLS001176749-01] | 0.335 µM |  |  | viability at 48 h, 1 µM (in vitro): 106%; viability at 48 h, 3 µM (in vitro): 105%
52 | CCOC(=O)c1c(CNc2ccncc2)n(C)c2cc(Br)c(O)cc12 [MLS000714612-01] | 2.66 µM | 90% | 86% | 
53 | CC(NCc1ccc(Cl)cc1Cl)C(O)c1ccccc1 (centres unmarked) [MLS000582862-01] | 4.73 µM |  |  | viability at 48 h, 1 µM (in vitro): 120%; viability at 48 h, 3 µM (in vitro): 104%
54 | CCCn1c(SCC(=O)Nc2cc(Cl)ccc2Cl)n[nH]c1=O [MLS001002877-01] | 5.31 µM | 97% | 94% | 
55 | Cc1cc(N2CCN(C3CCCCC3)CC2)nc2cccc(O)c12 [MLS000118317-01] | 5.31 µM | 104% | 105% | 
56 | COC(=O)c1c(-c2c(Cl)cccc2Cl)noc1NC(=O)NN1CCCCC1 [MLS000861266-01] | 2.37 µM | 93% | 87% | 
57 | COc1ccc2c(c1)C1(Nc3ccccc3-c3nc4ccccc4n31)C(=O)N2 (centres unmarked) [MLS000080605-01] | 0.596 µM | 99% | 104% | 
